# Data published in patent publication US10709724B2, “Methods of treating mitochondrial dysfunction” (Ecole Polytechnique Federale de Lausanne (EPFL), priority 2011, dated 2020).
# Key:
# C. elegans = experiment: Confocal microscopy of mitochondria in body wall muscle (pmyo-3::mito::GFP reporter); settings: in vivo
# Description: Confocal Microscopy and Image Processing Worms were immobilized with 6 mM solution of tetramisole hydrochloride (Sigma, Buchs, Switzerland) in M9 and mounted on 6% agarose pads on glass slides. Images of worms were acquired using Zeiss LSM 700 Upright confocal microscope (Carl Zeiss AG, Oberkochen, Germany) under non-saturating exposure conditions. All the snapshots were taken from the same part of C. elegans: muscles from the upper part of the worm, excluding the regions of oesophagus and vulva. For each condition multiple worms were observed and imaged. Image processing was performed with the Fiji software. One of the critical issues during the imaging process was the position of the worm, as it influences the level of background. For the uniformity of the represented images, contrast and brightness were adjusted in order, to eliminate the undesirable background signal. Neither of these manipulations was affecting the mitochondrial shape. Tracing of the mitochondrial network contour was done by the use of Gaussian blur filter followed by the application of Laplacian operator.
# GPR109A = target: T1, GPR109A (Homo sapiens, UniProt Q8TDS4); format: cell-based; settings: GPR109A-expressing Chem-4 cells
# T1 construct: host or cells: Chem-4 cells (Ready-to-Assay GPR109A Nicotinic Acid Receptor Cells)
# Description: GPR109A—Calcium Mobilization Assay. Ready-to-Assai™ GRP109A Nicotinic Acid Receptor Cells were used to measure calcium mobilization as specified by the manufacturer (Millipore). Calcium flux was determined using excitation at 340 and 380 nm in a fluorescence spectrophotometer (Victor X4, Perkin Elmer) in a 180 seconds time course, adding the ligand at 60 seconds. Internal validation was made using 0.1% Triton X-100 for total fluorophore release and 10 mM EGTA to chelate free calcium. Similarly, GPR109A specificity was internally validated using control cells devoid of GRP109A overexpression. Liver triglyceride measurement Liver triglycerides were measured from 20 mg of liver tissue using a variation of the Folch method, as described in Bai et al. (Bai et al., PARP-2 regulates SIRT1 expression and whole-body energy expenditure. (2011). Cell Metab 13, 450-460.
# SIRT1 = SIRT1 activity (FOXO1 acetylation, target genes) in NR-treated HEK293T cells; format: cell-based, human
# Description: mRNA and mtDNA Analysis. Total RNA was prepared using TRIzol (Invitrogen) according to the manufacturer's instructions. RNA was treated with DNase, and 2 μg of RNA was used for reverse transcription (RT). cDNA was purified on QIAquick PCR cleanup columns (Qiagen, Valencia, Calif., USA). 50× diluted cDNA was used for RT-quantitative PCR (RT-VCR) VCR) reactions (Bai et al., 2007). The RT-qPCR reactions were performed using the Light-Cycler system (Roche Applied Science) and a qPCR Supermix (Qiagen) with the primers for mice summarized in Table 1 and 4, and with the primers for worms summarized on Table 7. mtDNA quantification was performed as described (Lagouge et al., 2006) with the primers indicated in Table 2 and 5.
# Immunoprecipitation, SDS-PAGE, Western Blotting. Cells were lysed in lysis buffer (50 mM Tris, […], EDTA 1 mM, NP40 1%, nicotinamide 5 mM, Na-butyrate 1 in M, protease inhibitors pH7.4). Proteins were separated by SDS-PAGE and transferred onto nitrocellulose membranes. The origin of the primary and secondary antibodies used can be found as supplemental experimental procedures. Reactions were developed by enhanced chemiluminescence (Amersham, Little Chalfont, UK), PGC-1α, FOXO1 and Ndufa9 acetylation levels were analyzed by immunoprecipitation from cellular or nuclear lysates of tissues with anti-PGC-1α (Millipore), anti-FOXO1 (Cell Signaling, Danvers, Mass., USA) and anti-Ndufa9 (Abcam) antibody followed by Western blot using an acetyl-lysine antibody (Cell Signaling) that was normalized to total PGC-1a/FOXO1/Ndufa9 levels (Lagouge et al., 2006; Rodgers et al., 2005). In HEK293T cells HA-tagged PGC-1α was overexpressed and was immunoprecipitated using an anti-HA. In C2C12 myotubes, FLAG-HA tagged PGC-1α was introduced through adenoviral delivery 2 days before treatments, then IP was performed using anti-FLAG antibody and samples were processed as described. All blots were quantified by densitometry using ImageJ software. Poly(ADP-Ribose) detection was performed as previously described with slight modifications (Bai et al., PARP-1 inhibition increases mitochondrial metabolism through SIRT1 activation. Cell Metab 13, 461-468. (2011)) Briefly, PAR was detected by using a monoclonal anti-PAR antibody (Alexis, Lausanne Switzerland) by Western blotting of total protein lysates, using either […] of total worm protein lysates, […] of liver protein lysate or 200 g of muscle total protein extracts. PGC-1 acetylation was determined using PGC-1 immunoprecipitates from 2 mg of protein extracts, as described in Canto et al. (Canto et al., AMPK regulates energy expenditure by modulating NAD+ metabolism and SIRT1 activity. Nature 458, 1056 (2009)).
# C2C12 myotubes = experiment: Oxygen consumption in cultured C2C12 myotubes; format: cell-based
# Description: Oxygen Consumption in Cultured Cells. Cellular O2 consumption was measured using a Seahorse bioscience XF24 analyzer with […] biological replicates per condition, in 24 well plates at 37° C., exactly as described (Canto et al., 2009). C2C12 were infected with an adenovirus encoding for FLAG-HA-PGC-1 and either scramble or SIRT1 shRNAs 48 h previous to O2 consumption measurements. Then myotubes were treated with 1 μM PJ34 for 48 h. In order to measure the contribution of fatty acid oxidation to global O2 consumption, total cellular O2 consumption was measured for 6 successive 2 min measurements at 5 min intervals. Then, 50 μl of etomoxir (1 M; Calbiochem, San Diego, Calif., USA) were added and, after […], 6 successive 2 min measurements were performed at 5 min intervals. The remaining O2 consumption was attributed to non-lipid substrates, while the difference with the initial O2 consumption values was considered due to fatty acid oxidation.
# T1 sequence (Q8TDS4 whole entry): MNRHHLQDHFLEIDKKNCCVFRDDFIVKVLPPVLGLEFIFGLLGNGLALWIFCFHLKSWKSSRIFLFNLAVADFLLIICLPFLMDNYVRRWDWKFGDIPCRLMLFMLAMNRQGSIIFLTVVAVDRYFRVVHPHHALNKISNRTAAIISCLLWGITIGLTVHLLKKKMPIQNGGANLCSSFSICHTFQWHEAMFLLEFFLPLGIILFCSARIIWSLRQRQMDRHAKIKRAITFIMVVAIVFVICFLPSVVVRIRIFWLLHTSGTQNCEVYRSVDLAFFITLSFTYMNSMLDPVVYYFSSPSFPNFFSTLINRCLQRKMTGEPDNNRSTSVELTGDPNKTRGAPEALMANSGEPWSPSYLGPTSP
smiles,measurement,setting,value
"NC(=O)c1ccc[n+]([C@@H]2O[C@H](CO)[C@@H](O)[C@H]2O)c1 [NR, nicotinamide riboside]",mitochondrial content in body wall muscle,C. elegans,increase muscle mitochondrial content
same,mitochondrial morphology in body wall muscle,C. elegans,affect mitochondrial morphology
same,GPR109A activation (calcium flux),GPR109A,did not activate GPR109A
same,"expression of FOXO1 target genes (Gadd45, Catalase, Sod1, Sod2)",SIRT1,higher expression of target genes
same,Sod2 expression,"SIRT1; 0.5 mM, 24 hrs","higher expression of a FOXO1 target gene, Sod2"
same,Ucp2 mRNA levels,"SIRT1; 0.5 mM, 24 hrs",decreased Ucp2 mRNA levels
same,Ucp2 expression with Sirt1 knock-down,"SIRT1; 0.5 mM, 24 hrs, SIRT1 siRNAs",knocking down Sirt1 prevented the action of NR on Ucp2 expression
same,intracellular NAD+ content with SIRT1 knock-down,"SIRT1; 0.5 mM, 24 hrs, SIRT1 siRNAs",did not compromise the ability of NR to increase intracellular NAD^+ content
same,Sod2 expression with Foxo1 or Sirt1 knockdown,"SIRT1; 0.5 mM, 24 hrs, siRNAs",prevented by the knockdown of either Foxo1 or Sirt1
same,SIRT1 protein levels,SIRT1; 24 hrs,lack of changes in SIRT1 protein levels
same,acetylation of FOXO1,"SIRT1; 24 hrs, SIRT1-dependent",dose-dependently decreased the acetylation of FOXO1
CN(C)CC(=O)Nc1ccc2[nH]c(=O)c3ccccc3c2c1 [PJ34],O2 consumption rates,"C2C12 myotubes; 1 μM PJ34, 48 h",enhanced oxidative metabolism
same,O2 consumption with SIRT1 knock-down,C2C12 myotubes; SIRT1 shRNA,largely blunted
same,substrate contribution to the increase in O2 consumption,C2C12 myotubes; etomoxir,combination of enhanced oxidation of lipid and non-lipid substrates
